Results reported in patent US9872882B2, “Aurantiamide dipeptide derivatives for treatment or prevention of angiogenesis-related diseases” (Mackay Medical College, priority 2015, dated 2018).

Columns and labels:
late EPCs [1] = assay: Cell proliferation assay (MTT); type: cell-based, human; details: 48 h treatment, FIG. 1B
Method: (§1) This investigation conforms with the principles outlined in the Declaration of Helsinki for use of human tissue. Ethical approval was granted by the Institutional Review Board of the Mackay Memorial Hospital, Taipei, Taiwan. Informed consent was obtained from healthy donors before the collection of peripheral blood (80 mL). The peripheral blood mononuclear cells (PBMCs) were fractionated from other blood components by centrifugation on Ficoll-Paque™ plus (GE Healthcare) according to the manufacturer's instructions. CD34-positive progenitor cells were obtained and cultured. In brief, the cells were isolated from PBMCs using CD34 MicroBead kit and MACSTM Cell Separation System (all from Miltenyi Biotec). CD34-positive EPCs were maintained in MV2 complete medium (PromoCell) consisting of endothelial basal medium, 20% fetal bovine serum, hEGF, VEGF, hFGF-B, IGF-1, ascorbic acid, and heparin. 1×10^6 cells/cm^2 were seeded on fibronectin-coated dish (BD Biosciences) and maintained in 37° C. incubator under a humidified 95% air and 5% CO2 atmosphere.
EPCs (5×10^3 cells/well) were seeded onto 96-well plates. After 24 h incubation, the culture medium was removed and cells were incubated with fresh MV2 complete medium containing 2% FBS for 48 h in the absence or presence of Fmoc-10a. […] Formazan crystal was lysed by dimethyl sulfoxide (DMSO) and absorbance was measured at 550 nm with ELISA-reader.

late EPCs [2] = assay: Cytotoxicity assay (LDH release); type: cell-based, human; details: 48 h, even at high concentration (30 μM), FIG. 1C
Method: as §1
EPCs were treated with MV2 complete medium containing 2% FBS for 48 h in the absence or presence of Fmoc-10a. The percentage of LDH release was calculated from the ratio of LDH activity in the medium to LDH activity in the cell lysate after Fmoc-10a treatment.

late EPCs [3] = assay: Transwell cell migration assay; type: cell-based, human; details: 16 h treatment, FIG. 1D
Method: as §1, with “1×10^6 cells/cm^2 were seeded on fibronectin-coated dish (BD Biosciences) and maintained in 37° C. incubator under a humidified 95% air and 5% CO2 atmosphere.” left out
EPCs (5×10^4 cells/well) were seeded onto the upper chamber with MV2 complete medium, then incubated in the bottom chamber with MV2 complete medium containing 2% FBS with the indicated concentrations of Fmoc-10. […] Cell migration was quantified by counting the number of stained cells in 10 random fields with the inverted phase contrast microscope and photographed.

late EPCs [4] = assay: Capillary tube formation assay on Matrigel; type: cell-based, human; details: 16 h treatment, FIG. 1E
Method: as §1
Matrigel (BD Biosciences, Bedford, Mass.), which was used to promote the differentiation of EPCs into a capillary tube-like structure, was added to 48-well plates. […] Tube formation was quantified by measuring the long axis of each tube in 3 random fields per well by using Image-Pro Plus software.

early EPCs [5] = assay: Colony-forming assay (CFU-Hill); type: cell-based, human; details: FIGS. 2A&2B
Description: Isolated PBMCs are resuspended in MV2 complete medium. After 2 days, the nonadherent cells were collected and replated onto a fibronectin-coated 24-well plate. Five days later, the number of colony-forming units (CFUs) od early EPCs per well was counted.

early EPCs [6] = assay: Early EPC chemotaxis assay (Transwell); type: cell-based, human; details: 4 hours, FIG. 2C
Method: The chemotactic motility of early EPCs was evaluated using a Transwell. The lower filter surface was coated with gelatin. Fmoc-10a in presence or absence of MV2 complete medium was placed in the lower wells. The chamber was incubated at 37° C. for 4 hours. Cells were fixed with cold methanol and stained with 0.5% crystal violet.

[7] = system: VEGF-induced vessels sprouting from aortic rings; assay: Aortic ring sprouting assay (ex vivo); set-up: species or system Sprague-Dawley rats; details: VEGF 20 ng/ml, day 8, FIG. 3A
Method: Aortas were harvested from 8- to 10-week-old Sprague-Dawley rats. Following a complete washing, the aortas were cut into 1 mm ring segments. The aortic rings were placed in the 48-well plates which were pre-coated with 130 μl Matrigel and polymerized at 37° C. The wells were subsequently overlaid with another 50 μl Matrigel for sealing. VEGF (20 ng/ml) with or without Fmoc-10a was then added to the well. The cultured medium was changed every 3 days. Sprouting endothelial cells were observed and photographed on day 8. The area of sprouting vessels was measured quantitatively by Image-Pro Plus software.

[8] = system: VEGF-induced microvessel formation; assay: Directed in vivo angiogenesis assay (DIVAA); set-up: species or system C57BL/6 mice; details: VEGF-containing DIVAA tubes implanted in mice, 15 days, FIG. 3B
Method: Surgical silicone tubes were filled at 4° C. with Matrigel containing VEGF with or without Fmoc-10a. Then, the dorsal haunches of the anesthetized mice (C57BL/6 mice) were shaved and sterile prepped. A 5 mm cutaneous incision was made and a 10 mm deep subcutaneous pocket was created with a sterile hemostat. DIVAA tubes were incubated at 37° C. for 1 hour to allow gel formation and then implanted into the dorsal flank of mice. After 15 days, DIVAA tubes were taken and photographed. Neovessels were quantified by measuring the hemoglobin of the plug with the Drabkin method. All procedures involving animal experiment were approved by the Institutional Animal Care and Use Committee at Mackay Medical College.

B16F10 melanoma cells = assay: Matrigel invasion assay; type: cell-based, mouse; details: B16F10, 16 h, FIG. 4A
Method: (§2) Mouse melanoma cell line (B16F10) was obtained from American Type Culture Collection (ATCC, Manassas, Va.) and cultured in DMEM containing 10% FBS, penicillin (100 units/ml), streptomycin (100 μg/ml), and L-glutamine (2[…]mM). Cells were maintained in humidified air containing 5% CO2 at 37° C.
The upper side of the filters was coated with Matrigel (BD Biosciences, Bedford, Mass.) at a concentration of 125 […]μg/cm^2. B16F10 cells (5×10^4 cells/well) were seeded onto the upper chamber with serum-free medium, then incubated in the bottom chamber with culture medium containing 10% FBS in the absence or presence of Fmoc-10a. After 16 h of treatment, cells on the upper side of the filters were mechanically removed, and those migrated on the lower side were fixed with 4% formaldehyde, then stained with 0.5% crystal violet for 10 min. Finally, invaded cells were quantified by counting the number of stained cells in 10 random fields with the inverted phase contrast microscope and photographed.

[9] = system: VEGF release from B16F10 melanoma cells; assay: VEGF ELISA assay; type: cell-based, mouse; details: B16F10, 24 hr, ELISA of supernatant, FIG. 4B
Method: as §2
B16F10 cells were treated with various concentrations of Fmoc-10a or vehicle for 24 hr, and then the supernatant was collected to examine the amount of vascular endothelial growth factor (VEGF) protein. VEGF mouse ELISA Kit (Novex, Invitrogen) was used according to the manufacturer's instructions.

B16F10 melanoma = assay: Subcutaneous xenograft model; type: in vivo, C57BL/6 mice; details: daily intraperitoneal injection, FIG. 4C
Method: B16F10 cells (2×10^6) in a volume of 100 μL were injected subcutaneously into the right flank of the C57BL/6 mice. After 9 days, when tumors reached 2 mm in diameter, the mice were randomly given vehicle or the indicated doses of Fmoc-10a daily by intraperitoneal injection. Tumor size and body weight were measured every day. The tumor volume was calculated according to the following formula: V=(length×width^2/2). In accordance with the Animal Ethics Committee, the experiments should be stopped when an unbearable situation appeared in animals.

B16F10 cells = assay: Experimental metastasis model; type: in vivo, C57BL/6 mice; details: B16F10 tail vein; 1.5 or 4.5 mg/kg intraperitoneally every day, FIG. 4D
Method: B16F10 cells (2×10^6) were slowly injected into the lateral tail vein of C57BL/6 mice to initiate tumor metastasis. Fmoc-10a (1.5 or 4.5 mg/kg) was intraperitoneally administered to mice every day from 3 days before tumor cell injection to 21 days after tumor cell injection (the day sacrificed).

[10] = system: hyperoxia-induced retinal neovascularization; assay: Oxygen-induced retinopathy (OIR) model; type: in vivo, BALB/c-nude mice; details: retinal whole mounts, FIG. 5
Description: The mouse model of OIR has been widely used to induce retinal neovascularization in studies related to retinal ischaemic diseases, including AMD, and in studies evaluating the efficacy of antiangiogenic compounds. Briefly, BALB/c-nude mice at postnatal day (P7) are subjected to hyperoxia (75% oxygen) along with their nursing dam for 5 days (P12), and then to room air to produce retinal neovascularization. Neovascularization occurs upon return to normoxia and peaks at P17. All of the mice in the OR model were perfusion fixed via left ventricular puncture at the time of euthanasia, with 5 ml rhodamine-conjugated dextran. Then, angiography of retinal vasculature was performed and retinal whole mounts were prepared to score features of retinopathy.

| Compound | cell proliferation of late EPCs (late EPCs [1]) | LDH release of late EPCs (late EPCs [2]) | cell migration of late EPCs (late EPCs [3]) | tube formation of late EPCs (late EPCs [4]) | CFU-Hill colonies of early EPCs (early EPCs [5]) | chemotaxis of early EPCs (early EPCs [6]) | VEGF-induced vessels sprouting from aortic rings [7] | microvessel formation in the Matrigel plugs (hemoglobin content) [8] | cell invasion of melanoma cells (B16F10 melanoma cells) | production of VEGF in melanoma cells [9] | tumor growth of melanoma cells (B16F10 melanoma) | lung metastasis of melanoma cancer (pulmonary colony number) (B16F10 cells) | hyperoxia-induced pathological neovascularization in mice [10] |
| --- | --- | --- | --- | --- | --- | --- | --- | --- | --- | --- | --- | --- | --- |
| CC(C)[C@H](NC(=O)OCC1c2ccccc2-c2ccccc21)C(=O)N[C@@H](CO)Cc1ccccc1 [Fmoc-10a, (9H-fluoren-9-yl)methyl (S)-1-((R)-1-hydroxy-3-phenylpropan-2-ylamino)-3-methyl-1-oxobutan-2-ylcarbamate] | suppresses cell proliferation of late EPCs in a concentration-dependent manner | does not induce LDH release | significantly inhibits cell migration | significantly inhibits | significantly inhibits CFU-Hill colonies | markedly suppresses chemotaxis | dramatically abrogated VEGF-induced vessels sprouting | attenuated concentration-dependently microvessel formation | significantly inhibits cell invasion | significantly inhibits | potently blocks tumor growth of melanoma cells in a dose-dependent manner | substantially suppresses lung metastasis | significantly blocks hyperoxia-induced pathological neovascularization |
| Avastin: Avastin (10 μg) was used as positive control in the OIR model [reference compound] | – | – | – | – | – | – | – | – | – | – | – | – | significantly blocks hyperoxia-induced pathological neovascularization |
